Measured values: paper PMC7011998 (Journal of Enzyme Inhibition and Medicinal Chemistry, 2017)
pIC50: −log10 of the molar value.

Experiments:
[1] = Dissolution of sulfonamides in clove oil; conditions: concentration 5 mg/ml in clove oil
Method: Oil phase was prepared by sulfonamides dissolution in the clove oil. A 5 mg of drug was weighted in an eppendorf and 1 ml of clove oil was added. The tube was agitated for 1 min for obtaining of the drug solution (5 mg/ml). Aqueous phase were prepared by adding 1 g of Pluronic F127® in 8 mg of water. Then 1 ml of oil phase (drug dissolved in clove oil) was added to 9 ml of aqueous phase (Pluronic F127 in water) under constant ultrasound homogenization (amplitude 80%, continuous cycle n. 1) during 5 min in an ice bath at 5 °C to prevent heating of the dispersion.
The NEs were produced with 10% of oil phase.

Trypanosoma cruzi = system: Trypanosoma cruzi; set-up: method as in PMID 23815159; conditions: unformulated sulfonamides; cited from earlier work
[2] = system: T. cruzi Dm28c strain epimastigotes; assay: Flow cytometry annexin V-FITC / propidium iodide, Dm28c; format: cell-based, Trypanosoma cruzi; conditions: 32 μM
Method: The analysis of the externalization of phosphatidylserine was performed using annexin V fluoresceine isothiocyanate (AV FITC) and propidium iodide, PI (Santa Cruz Biotechonology, Santa Cruz, CA). The cells were analysed by flow cytometry (FACS Calibur-Beckton-Dickinson), 50,000 events were analysed by the Paint-a-gate program and values were expressed as percentage of cells positive for a given marker relative to the total number of cells: FITC-labelled cells […], PI-labelled cells […], and cells with ruptured cell membrane (necrotic cells will be double-labelled).

[3] = system: T. cruzi clone Dm28c epimastigotes; assay: Growth inhibition of T. cruzi epimastigotes, resazurin microdilution, Dm28c; format: cell-based, Trypanosoma cruzi
Method: (§1) Epimastigote forms of the T. cruzi clone Dm28c ([…])[31] and Y([…])[32]^,[33] strains obtained from the Laboratory of Cellular Ultrastructure (both laboratories of the Oswaldo Cruz Foundation, Rio de Janeiro, Brazil) were used. The parasites were maintained in PBHIL medium supplemented with 10% bovine serum (FBS) at 28 °C[34].
(§2) The Minimum inhibitory concentration (MIC) for epimastigotes was performed with resazurin as an indicator of cellular metabolic function and it was determined as the lowest concentration capable of inhibiting in vitro growth of the parasites.

[4] = system: T. cruzi Y strain epimastigotes; assay: Growth inhibition of T. cruzi epimastigotes, resazurin microdilution, Y strain; format: cell-based; conditions: Trypanosoma cruzi; TcY epimastigotes, drug nanoemulsions; read-out: IC90 (concentration which reduced the proliferation of epimastigotes by 90%)
Method: as §1, §2

Compound	dissolution in clove oil [1]	in vivo anti-trypanosomal effects (Trypanosoma cruzi)	further results
NS(=O)(=O)c1ccc(NC(=O)Cc2ccccc2Br)c(F)c1 [3G]	dissolved efficiently	did not show in vivo anti-trypanosomal effects	
NS(=O)(=O)c1ccc(NC(=O)Cc2ccc(Cl)cc2)c(F)c1 [3F]	dissolved efficiently	did not show in vivo anti-trypanosomal effects	
NS(=O)(=O)c1nnc(NC(=O)Cc2ccc(Cl)cc2)s1 [5B]	dissolved efficiently	did not show in vivo anti-trypanosomal effects	
COc1ccc(CC(=O)Nc2nnc(S(N)(=O)=O)s2)cc1 [5D]	dissolved efficiently	did not show in vivo anti-trypanosomal effects	
NS(=O)(=O)c1nnc(NC(=O)Cc2ccccc2Br)s1 [5C]	dissolved efficiently	did not show in vivo anti-trypanosomal effects	
NS(=O)(=O)c1ccc(CCNC(=O)Cc2ccccc2Br)cc1 [3W]	dissolved efficiently	did not show in vivo anti-trypanosomal effects	
O=C(Cn1ccnc1[N+](=O)[O-])NCc1ccccc1 [BZN, 2-nitro-imidazole-(N-benzil-2-nitro-1imidazoleacetamide)]			cell death by necrosis (propidium iodide) [2]: 51.16%; pIC50 ([3]; Trypanosoma cruzi, read-out: IC50 (concentration which reduced the proliferation of epimastigotes by 50%), Tc DM28c epimastigotes, drug nanoemulsions): 4.69; IC90 ([3]; Trypanosoma cruzi, Tc DM28c epimastigotes, drug nanoemulsions, read-out: IC90 (concentration which reduced the proliferation of epimastigotes by 90%)): > 128 µM; SI (selectivity index) ([3]; both strains (DM28c and Y), CC50 RAW / IC50): 5–5.8; IC90 [4]: > 128 µM
